Measured values from patent US7087385B2, “Promoter sequences for urocortin II and the use thereof” (Wisconsin Alumni Research Foundation, priority 2002, dated 2006).
Where no end group is shown, it is not given here.

Tests used:
human UCN II promoter [1] = test: Dexamethasone induced expression from UCN II promoter fragments in CHO-K1 cultures; assay type: cell-based, hamster; settings: 20 μM dexamethasone, 22 h
Excerpt: (§1) The above constructs containing the human UCN II promoter fragments placed upstream of the firefly luciferase gene can be used to transfect immortalized cell lines. The constructs can be transfected into CHO-K1 cell lines using Lipofectamine 2000 (Invitrogen Life Technologies). Primary cultures of the central nervous system, as well as additional immortalized cell lines, are also appropriate for these transfections. To control for transfection efficiency, the cells can also be co-transfected with the pRL-TK vector (Promega). The pRL-TK vector contains the Renilla luciferase gene downstream of the herpes simplex virus thymidine kinase promoter, a promoter which provides low to moderate levels of expression. Cell lysates can be assayed for total protein using the BCA assay (Pierce, Rockford, Ill.) to standardize for the protein extraction. The level of reporter gene expression from a standardized amount of cell extract can be quantified by measuring luciferase activity using a luminometer (EG&G Wallac, Gaithersburg, Md.) and the dual-luciferase reporter assay system (Promega). Firefly luciferase activity reflects UCN II promoter activity and Renilla luciferase activity can be used to normalize data between experiments.
Using the methods described previously, CHO-K1 cultures were transiently transfected with the UCN II promoter constructs. […]

human UCN II promoter [2] = test: Dexamethasone induced expression from UCN II promoter fragments in CATH.a cultures; assay type: cell-based, mouse; settings: 20 μM dexamethasone, 22 h
Excerpt: as §1
In the following experiments, we confirmed the dexamethasone treatment results in the CATH.a cell line. Using the methods described previously, CATH.a cultures were transiently transfected with the UCN II promoter constructs. Immediately following transfection equal numbers of cultures (N=12 per group) were treated with either 20 μM dexamethasone or were given vehicle. Twenty-two hours following treatment, the cultures were harvested and assayed for luciferase activity (see FIG. 7).

human UCN II promoter [3] = test: CRF induced expression from UCN II promoter fragments in CATH.a cultures; assay type: cell-based; settings: 1 μM CRF, 22 h
Excerpt: as §1
Using the methods described previously, CATH.a cultures were transiently transfected with the UCN II promoter constructs. Immediately following transfection equal numbers of cultures (N=4 per group) were treated with either 1 μM CRF or with vehicle. Twenty-two hours following treatment, the cultures were harvested and assayed for luciferase activity (see FIG. 8). CATH.a cultures are known to express CRF receptors and both CRF and UCN II are known ligands for the receptors. […] The goal of the present experiment was to determine if CRF receptor-dependent second messenger system activation affected UCN II gene expression.

Compound	decrease in expression compared to vehicle, −1426 construct (human UCN II promoter [1]) [%]	expression within the remaining constructs vs vehicle (human UCN II promoter [1])	decrease in expression compared to vehicle, −1426 construct (human UCN II promoter [2]) [%]	decrease in expression compared to vehicle, −1987 construct (human UCN II promoter [2]) [%]	expression within the remaining constructs vs vehicle (human UCN II promoter [2])	expression within the remaining constructs vs vehicle (human UCN II promoter [3])	increase in expression over vehicle, −1426 construct (human UCN II promoter [3]) [%]	increase in expression over vehicle, −1987 construct (human UCN II promoter [3]) [%]	expression within the −1987 and −1426 constructs vs vehicle (human UCN II promoter [3]; P<0.05 for −1987, P<0.001 for −1426, preliminary data)
C[C@@H]1C[C@H]2[C@@H]3CCC4=CC(=O)C=C[C@]4(C)[C@@]3(F)[C@@H](O)C[C@]2(C)[C@@]1(O)C(=O)CO [dexamethasone]	15	no significant effect	39	29	no effect	–	–	–	–
corticotropin-releasing factor (SEEPPISLDLTFHLLREVLEMARAEQLAQQAHSNRKLMEII; ends and bridges not checked; UniProt P06850 154-194, looked up) [CRF, neurotransmitter peptide, ligand of CRF receptors]	–	–	–	–	–	no significant effect	52	29	significantly increased expression
